Experimental data as given in article PMC6595003, “Insights into real-time chemical processes in a calcium sensor protein-directed dynamic library” (Nature Communications, 2019).
“And” between values parts separate entries of the source, which are not always exact repeats. Equal values may be shown once. “Also recorded” adds a separate entry of the source.

target: T1, NCS-1/Ric8a interaction (Homo sapiens, UniProt P62166); assay: Co-IP binding assay of human NCS-1 and V5-tagged Ric8a in transfected HEK cells; assay type: cell-based; settings: compound 20 μM, compared with DMSO (basal binding 100%)
T1 construct: expressed in transfected cells; host or cells: HEK293 cells (Dharmacon)
T1 sequence (P62166 2-190 limits assumed): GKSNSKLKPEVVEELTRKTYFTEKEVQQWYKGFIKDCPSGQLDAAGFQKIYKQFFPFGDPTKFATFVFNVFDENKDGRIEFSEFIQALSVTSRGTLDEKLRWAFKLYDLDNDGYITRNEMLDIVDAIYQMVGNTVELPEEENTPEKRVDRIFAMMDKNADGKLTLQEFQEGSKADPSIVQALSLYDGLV
Text: Mean ± SD from three independent experiments. The curves represent the least squares fitting of the experimental data to a 1:1 stoichiometry. To properly compare the different curves, intensities were normalized and represented. […] Input represents 1/10 cell lysates before IP. Quantifications of each lane from four experiments are shown below the blots. Bars represent percentage of NCS-1/ Ric8a binding (mean ± SD) normalized to DMSO. […] CNS + (green) for Pe > 4.47 × 10^−6 cm s^−1, CNS- (red) for compounds with Pe < 4.47 × 10^–6 cm s^−1. […] Mean ± SD from three independent experiments. […] Then, the percentage of picnotic bodies over the total nuclei was analyzed. Mean ± SD from three independent experiments. Paired two-tailed Student’s test ***P˂0.001; **P < 0.01; *P < 0.05. Source data are provided as a Source Data file. IP immunoprecipitation, WB western blot
Binding assays with NCS-1 and Ric8a in co-transfected HEK cells were carried out to study the modulation effect of compounds 3a, 3b and 3d in the protein-protein interaction (Fig. 6b).
hNCS-1 and V5-tagged hRic8a were co-transfected into HEK293 cells (Dharmacon) using Lipofectamine 2000 (Invitrogen)[13]. After 24 h, after transfection, DMSO alone or the compounds dissolved in DMSO (20 μM) were added to the culture cells. Then, 24 h after transfection, cells were lysed with Lysis buffer (150 mM NaCl, 1.0% Nonidet P-40, 50 mM Tris, pH 8.0) in the presence of the compounds (20 μM), whose concentration was maintained throughout the immunoprecipitation assay. Precleared lysates were incubated overnight (12 h) at 4 °C with mouse anti-NCS-1 (1:500; Cell Signaling). Samples were subsequently incubated overnight with Protein-G-Sepharose (Sigma-Aldrich), washed and eluted from the Sepharose. Samples were analyzed by Western blot following standard procedures. […] Original representative western blots are found in Source Data file.

SMILES | modulation of the NCS-1/Ric8a binding
O=C(Cc1c[nH]c2ccccc12)NN=Cc1ccc([N+](=O)[O-])c(O)c1 (mixture of isomers) [3b] | strong binding; also recorded: promote the stabilization of the NCS-1/Ric8a interaction
O=C(NN=Cc1ccc([N+](=O)[O-])c(O)c1)C(O)c1ccccc1 (mixture of isomers) [3d] | strong binding; also recorded: promote the stabilization of the NCS-1/Ric8a interaction
O=C(N/N=C/c1ccc([N+](=O)[O-])c(O)c1)c1ccco1 [3a] | reduced binding; also recorded: inhibitor similar to CPZ

same assay, conditions: compound 20 μM; DMSO in the same experiment 3222255

SMILES | Densitometry of V5-Ric8a co-immunoprecipitated with NCS-1, exp4
O=C(Cc1c[nH]c2ccccc12)NN=Cc1ccc([N+](=O)[O-])c(O)c1 (mixture of isomers) [3b] | 9362004
O=C(NN=Cc1ccc([N+](=O)[O-])c(O)c1)C(O)c1ccccc1 (mixture of isomers) [3d] | 6181447
O=C(N/N=C/c1ccc([N+](=O)[O-])c(O)c1)c1ccco1 [3a] | 1982719

same assay, conditions: compound 20 μM; DMSO in the same experiment 4613104

SMILES | Densitometry of V5-Ric8a co-immunoprecipitated with NCS-1, exp3
O=C(Cc1c[nH]c2ccccc12)NN=Cc1ccc([N+](=O)[O-])c(O)c1 (mixture of isomers) [3b] | 7268347
O=C(NN=Cc1ccc([N+](=O)[O-])c(O)c1)C(O)c1ccccc1 (mixture of isomers) [3d] | 9737953
O=C(N/N=C/c1ccc([N+](=O)[O-])c(O)c1)c1ccco1 [3a] | 1649426

same assay, conditions: compound 20 μM; DMSO in the same experiment 9508518

SMILES | Densitometry of V5-Ric8a co-immunoprecipitated with NCS-1, exp2
O=C(Cc1c[nH]c2ccccc12)NN=Cc1ccc([N+](=O)[O-])c(O)c1 (mixture of isomers) [3b] | 15828581
O=C(NN=Cc1ccc([N+](=O)[O-])c(O)c1)C(O)c1ccccc1 (mixture of isomers) [3d] | 13428024
O=C(N/N=C/c1ccc([N+](=O)[O-])c(O)c1)c1ccco1 [3a] | 4838154

same assay, conditions: compound 20 μM; DMSO in the same experiment 19247016

SMILES | Densitometry of V5-Ric8a co-immunoprecipitated with NCS-1, exp1
O=C(Cc1c[nH]c2ccccc12)NN=Cc1ccc([N+](=O)[O-])c(O)c1 (mixture of isomers) [3b] | 32007200
O=C(NN=Cc1ccc([N+](=O)[O-])c(O)c1)C(O)c1ccccc1 (mixture of isomers) [3d] | 25716501
O=C(N/N=C/c1ccc([N+](=O)[O-])c(O)c1)c1ccco1 [3a] | 13971167

target: T2, dNCS-1 (Drosophila melanogaster, UniProt Q9VWX8); assay: Protein-directed DCL, HPLC-MS relative peak area with and without dNCS-1; settings: as fraction of total area
T2 construct: made in house; host or cells: E. coli
T2 sequence (Q9VWX8 1-187): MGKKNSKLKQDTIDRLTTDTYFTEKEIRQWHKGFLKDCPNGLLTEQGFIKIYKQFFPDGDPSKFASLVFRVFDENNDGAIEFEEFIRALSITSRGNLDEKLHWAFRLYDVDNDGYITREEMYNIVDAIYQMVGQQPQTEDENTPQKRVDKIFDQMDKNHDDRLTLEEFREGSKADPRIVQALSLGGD
Description: The reversibility of the DCL was evident, since an identical equilibrium distribution to that shown in Fig. 4a was obtained when two different starting points were employed. The observed degree of amplification was 3b > 3e ≥ 3d > 3a. The precise composition of the DCL (with and without dNCS-1), was assessed by measuring the relative peak area (RPA). Indeed, the normalized change of RPA was used to quantify the protein influence in the final outcome (Supplementary Figs. 9, 10 and Supplementary Tables 1, 2 and 3)[28]. […] Note that compounds 3a–3e can exist as E/Z isomers of the C = N bond. […].
Aldehyde 1 (1.2 μL, 50 mM, DMSO), the five acylhydrazides 2a–2e (5 × 3.6 μL, 50 mM, DMSO), p-anisidine (1 μL, 12 M, DMSO) and buffer 20 mM Tris, 0.5 M NaCl and 1 mM CaCl2, 1 mM DTT at pH 7.4 (750 μL) in 3.3 % DMSO. The mixture was stabilized in 5 h at 4 °C. HPLC analysis was performed.
Aldehyde 1 (1.2 μL, 50 mM, DMSO), the five acylhydrazides 2a–2e (5 × 3.6 μL, 50 mM, DMSO), p-anisidine (1 μL, 12 mM, DMSO) and dNCS-1 in buffer 20 mM Tris, 0.5 M NaCl and 1 mM CaCl2, 1 mM DTT at pH 7.4 (66.7 μM, 750 μL, 1 eq.). The experiment is in 3.3% DMSO. The mixture was stabilized for 5 h at 4 °C. Then, dNCS-1 was removed by ultrafiltration using an Amicon Ultra filter (0.5–10 KDa). HPLC analysis was performed and the traces were compared with the blank composition.
Supplementary Figure 9. Relative Peak Area of the DCL with and without dNCS1. Aldehyde
1 (1.2 µL, 50 mM), 2a-e (3.6 µL, 50 mM), catalyst (1 µL, 12 M), dNCS-1:1 [1:1], tris buffer (20
mM, pH 7.4), 1 mM CaCl2, 0.5 M NaCl, 1 mM DTT, T = 4 °C, 2% DM SO. Mean relative peak
area (RPA) of each acylhydrazone of the library in the absence (blank) and presence of dNCS-1.
Error bars indicate standard deviation (SD) over three experiments. The calculation is set by the
sum of all peak areas to 100% and assigning each peak its percentage. Source data are provided
R P A N o rm aliz ed V a riation
Supplementary Figure 10. RPA normalized of variation of DCL with and without dNCS1.
Aldehyde 1 (1.2 µL, 50 mM), 2a-e (3.6 µL, 50 mM), catalyst (1 µL, 12 M), dNCS-1:1 [1:1], tris
buffer (20 mM, pH 7.4), 1 mM CaCl2, 0.5 M NaCl, 1 mM DTT, T = 4 °C, 2% DM SO. Error
bars indicate SD over three experiments. Source data are provided as a Source Data file.

SMILES | RPA, Blank DCL
O=C(Cc1c[nH]c2ccccc12)NN=Cc1ccc([N+](=O)[O-])c(O)c1 (mixture of isomers) [3b] | 0.1921
O=C(NN=Cc1ccc([N+](=O)[O-])c(O)c1)C(O)c1ccccc1 (mixture of isomers) [3d] | 0.1114
O=C(N/N=C/c1ccc([N+](=O)[O-])c(O)c1)c1ccco1 [3a] | 0.2727

same assay, conditions: as fraction of total area, with dNCS-1

SMILES | RPA, Templated DCL
O=C(Cc1c[nH]c2ccccc12)NN=Cc1ccc([N+](=O)[O-])c(O)c1 (mixture of isomers) [3b] | 0.2944
O=C(NN=Cc1ccc([N+](=O)[O-])c(O)c1)C(O)c1ccccc1 (mixture of isomers) [3d] | 0.0839
O=C(N/N=C/c1ccc([N+](=O)[O-])c(O)c1)c1ccco1 [3a] | 0.1875

same assay, conditions: relative peak area in presence of dNCS-1

SMILES | RPA (%) with protein (templated DCL)
O=C(Cc1c[nH]c2ccccc12)NN=Cc1ccc([N+](=O)[O-])c(O)c1 (mixture of isomers) [3b] | 29.4% and 29.4401%
O=C(NN=Cc1ccc([N+](=O)[O-])c(O)c1)C(O)c1ccccc1 (mixture of isomers) [3d] | 8.4% and 8.39%
O=C(N/N=C/c1ccc([N+](=O)[O-])c(O)c1)c1ccco1 [3a] | 18.8% and 18.7508%

same assay, conditions: relative peak area, sum of all peak areas set to 100%

SMILES | RPA (%) without protein (blank DCL)
O=C(Cc1c[nH]c2ccccc12)NN=Cc1ccc([N+](=O)[O-])c(O)c1 (mixture of isomers) [3b] | 19.2% and 19.208%
O=C(NN=Cc1ccc([N+](=O)[O-])c(O)c1)C(O)c1ccccc1 (mixture of isomers) [3d] | 11.1% and 11.1444%
O=C(N/N=C/c1ccc([N+](=O)[O-])c(O)c1)c1ccco1 [3a] | 27.3% and 27.2702%

same assay, conditions: sheet Supplementary Figure 10

SMILES | RPA (%), Blank DCL [%]
O=C(Cc1c[nH]c2ccccc12)NN=Cc1ccc([N+](=O)[O-])c(O)c1 (mixture of isomers) [3b] | 19.2
O=C(NN=Cc1ccc([N+](=O)[O-])c(O)c1)C(O)c1ccccc1 (mixture of isomers) [3d] | 11.1
O=C(N/N=C/c1ccc([N+](=O)[O-])c(O)c1)c1ccco1 [3a] | 27.3

same assay, conditions: sheet Supplementary Figure 10, with dNCS-1

SMILES | RPA (%), Templated DCL [%]
O=C(Cc1c[nH]c2ccccc12)NN=Cc1ccc([N+](=O)[O-])c(O)c1 (mixture of isomers) [3b] | 29.4
O=C(NN=Cc1ccc([N+](=O)[O-])c(O)c1)C(O)c1ccccc1 (mixture of isomers) [3d] | 8.39
O=C(N/N=C/c1ccc([N+](=O)[O-])c(O)c1)c1ccco1 [3a] | 18.8
